Source: patent US20250223301A1, “KINASE INHIBITORS, PREPARATION METHODS AND USES THEREOF” (InventisBio Co., Ltd., priority 2022, published 2025)
Where two headings read alike, the source gives them in different places.

Tests used:
[1] = target: T1, DGKa (Homo sapiens (Human), UniProt P23743);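 also: biochemical DGK kinase assay, ADP-Glo luminescence from ADP made by phosphorylating 1,2-dioleoyl-sn-glycerol, 20 min compound preincubation then 40 min reaction at 25 °C, 1% DMSO control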
Protocol: (§1) The DGKa and DGKz kinase assays were performed using Promega ADP-Glo kit (Promega, Cat #V9102). One microliter test compound was added to a 384-well plate. Reactions were performed in a 5 uL volume by adding 2 uL mixture of DGK enzyme and ATP in assay buffer (50 mM MOPS pH 7.5, 100 mM NaCl, 10 mM MgCl2, 1 mM CaCl2, 0.0025% BSA, and 1 mM DTT). […] The enzyme solution was incubated with test compound at 25 ? for 20 min. […] The reaction was initiated by the addition of 2 uL of substrate solution (7 uM 1.2-dioleoyl-sn-glycerol, 5 mM octyl-b-D-glucopyranoside) in the 5 uL assay volume. The resulting mixture was incubated at 25° C. for 40 minutes. Next, 5 uL of ADP-Glo-reagent was added to the plate and incubated for 40 minutes. Then 10 uL of kinase detection reagent was added and incubated for 30 minutes. Luminescence was recorded using an Tecan SPARK microplate reader. 1% DMSO vehicle was used as control and no enzyme well was used as blank well.

[2] = target: DGKz (Homo sapiens (Human), UniProt Q13574); experiment: DGK ADP-Glo kinase assay (DGKz); format: biochemical; details: 5 nM DGKz, 15 uM ATP
Protocol: Luminescence was recorded using an Tecan SPARK microplate reader.

[3] = Human microsomal clearance assay; format: in vitro ADME; details: pH 7.4; for CLint scaled at 1 μM: human, liver microsomes; for half-life at 1 μM: human liver microsomes 0.5 mg/mL, 1 uM compound
Protocol: This study aimed to assess the metabolic stability of a compound in human liver microsomes using a microsomal clearance assay.
A mixture containing 100 mM potassium phosphate, pH 7.4, 0.5 mg/mL liver microsomes, 2 mM NADPH, and 1 μM compound were prepared and added to 96-well plate. The plates were then incubated at 37 ? for different time points (0, 5, 15, 30, 45 minutes) and the reaction was stopped with acetonitrile solution containing an internal standard. The samples were then analyzed by LC/MS/MS to determine how much of the compound remained at each time point. The elimination rate constant and half-life were calculated from the data, and the in vitro intrinsic clearance (CLint) was determined as follows: […]

[4] = system: Jurkat cells; experiment: Jurkat IL-2 assay; format: cell-based; details: Homo sapiens, anti-CD3/CD28 stimulation overnight, IL-2 level
Outline: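 Cells in RPMI-1640 with 10% FBS received compound solution (5 uM to 2.3 nM, 8 points, 3-fold dilution) for 60 minutes at 37° C. They were then stimulated overnight at 37° C. with anti-CD3/CD28 antibody. IL-2 in the supernatant was quantified by immunoassay kit and plotted against log compound concentration.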

[5] = system: PBMC; experiment: Human PBMC IL-2 assay; format: cell-based; details: anti-CD3/CD28 stimulation overnight, IL-2 level
Outline: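 Healthy-donor frozen PBMC were thawed, rested 4 h at 37 °C and plated at ~200,000 cells/well. Cells were preincubated 60 min at 37 °C with compound solution (10 uM to 0.6 nM, 8 points, 4-fold, as added), then stimulated overnight with anti-CD3/CD28. Supernatant IL-2 was quantified by immunoassay kit and plotted against log compound concentration.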

[6] = target: T1, DGKa; experiment: biochemical
Protocol: as §1

DGKz, sequence (Q13574 whole entry): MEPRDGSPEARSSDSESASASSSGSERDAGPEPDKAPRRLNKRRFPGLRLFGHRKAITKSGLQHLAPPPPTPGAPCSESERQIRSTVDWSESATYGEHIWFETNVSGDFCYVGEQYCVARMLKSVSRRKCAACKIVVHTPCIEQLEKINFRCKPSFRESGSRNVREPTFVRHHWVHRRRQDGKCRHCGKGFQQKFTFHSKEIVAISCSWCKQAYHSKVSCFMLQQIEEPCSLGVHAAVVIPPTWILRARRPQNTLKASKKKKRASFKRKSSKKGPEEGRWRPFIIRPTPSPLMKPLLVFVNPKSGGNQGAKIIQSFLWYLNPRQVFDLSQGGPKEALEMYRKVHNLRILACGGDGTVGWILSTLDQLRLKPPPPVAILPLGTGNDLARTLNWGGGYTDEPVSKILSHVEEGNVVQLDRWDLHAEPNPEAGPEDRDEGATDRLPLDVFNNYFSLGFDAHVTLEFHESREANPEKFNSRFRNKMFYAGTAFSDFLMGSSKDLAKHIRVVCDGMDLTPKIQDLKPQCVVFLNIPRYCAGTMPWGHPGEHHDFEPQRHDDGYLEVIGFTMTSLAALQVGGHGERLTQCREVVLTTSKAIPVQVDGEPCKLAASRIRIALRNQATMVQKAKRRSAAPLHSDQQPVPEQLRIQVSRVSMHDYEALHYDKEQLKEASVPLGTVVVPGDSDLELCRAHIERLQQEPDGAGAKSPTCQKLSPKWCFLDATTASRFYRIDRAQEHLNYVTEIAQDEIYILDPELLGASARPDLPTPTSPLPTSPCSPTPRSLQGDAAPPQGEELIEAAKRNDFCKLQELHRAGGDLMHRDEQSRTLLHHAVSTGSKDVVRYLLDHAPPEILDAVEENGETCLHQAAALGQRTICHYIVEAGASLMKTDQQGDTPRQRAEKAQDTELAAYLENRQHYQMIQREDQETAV
T1 sequence (P23743 whole entry): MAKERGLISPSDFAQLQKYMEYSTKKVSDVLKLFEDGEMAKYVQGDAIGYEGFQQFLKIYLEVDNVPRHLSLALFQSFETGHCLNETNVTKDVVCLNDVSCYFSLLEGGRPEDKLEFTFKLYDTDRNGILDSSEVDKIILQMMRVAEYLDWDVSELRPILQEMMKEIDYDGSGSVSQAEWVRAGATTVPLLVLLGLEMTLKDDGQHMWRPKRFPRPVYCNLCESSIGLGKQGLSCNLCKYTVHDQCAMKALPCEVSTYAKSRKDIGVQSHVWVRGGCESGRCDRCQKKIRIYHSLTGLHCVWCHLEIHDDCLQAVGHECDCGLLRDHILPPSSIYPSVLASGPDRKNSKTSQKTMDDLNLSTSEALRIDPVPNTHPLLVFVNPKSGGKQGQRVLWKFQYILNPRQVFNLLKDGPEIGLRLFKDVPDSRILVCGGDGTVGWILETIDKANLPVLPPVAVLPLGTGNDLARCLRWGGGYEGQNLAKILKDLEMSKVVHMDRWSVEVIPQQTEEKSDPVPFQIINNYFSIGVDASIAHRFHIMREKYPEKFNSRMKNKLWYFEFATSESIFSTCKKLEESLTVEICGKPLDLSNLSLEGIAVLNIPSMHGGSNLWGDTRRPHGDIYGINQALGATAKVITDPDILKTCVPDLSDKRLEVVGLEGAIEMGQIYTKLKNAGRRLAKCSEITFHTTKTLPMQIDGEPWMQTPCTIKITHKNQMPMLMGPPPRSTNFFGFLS

| SMILES | IC50 [1] [nM] | IC50 [2] [nM] | also measured |
| --- | --- | --- | --- |
| CC[C@@H]1CN2c3c(c(=O)n(C)c4ccc(C#N)nc34)OC[C@H]2CN1[C@@H](CC)c1ccc(C(F)(F)F)cc1 [Compound 107] | 9 | 136 | – |
| N#Cc1ccc2c(n1)c(N1CCC3(CC1)CC(c1ccc(C(F)(F)F)cc1)=NO3)nc1nncn12 [Compound 53] | 85 | 185 | – |
| CC[C@H]1CN([C@@H]2CCCCc3cc(C(F)(F)F)ccc32)[C@H](CC)CN1c1nc2nncn2c2ccc(C#N)nc12 [Compound 114] | 30 | 4 | – |
| CC[C@H]1CN([C@@H](CC)c2ccc(C(F)(F)F)cc2)[C@H](CC)CN1c1nc2nccn2c2ccc(C#N)nc12 [Compound 109] | 6 | 71 | – |
| CC[C@@H]1CN2c3c(c(=O)n(C)c4ccc(C#N)nc34)CC[C@@H]2CN1[C@H](CC)c1ccc(C(F)(F)F)cc1 [Compound 332] | – | – | CLint scaled at 1 μM [3]: 6.9 mL/min/kg; half-life at 1 μM [3]: 4.23 h; EC50 [4]: 130 nM; EC50 [5]: 64 nM |
| [2H]C([2H])([2H])n1c(=O)c2c(c3nc(C#N)ccc31)N1C[C@@H](CC)N([C@@H](CC)c3ccc(C(F)(F)F)cc3)C[C@H]1CO2 (stereo in doubt) [Compound 251] | – | – | CLint scaled at 1 μM [3]: 8.6 mL/min/kg; half-life at 1 μM [3]: 3.38 h; EC50 [4]: 51 nM; EC50 [5]: 50 nM |
| N#Cc1ccc2c(n1)c(N1CCC3(CC1)CC(c1ccc(SC(F)(F)F)cc1)=NO3)nc1nncn12 [Compound 54] | 29 | 248 | – |
| CC[C@H]1CN([C@@H](CC)c2ccc(OC)cc2F)[C@H](CC)CN1c1nc2nncn2c2ccc(C#N)nc12 (stereo in doubt) [Compound 115] | 3 | 8 | – |
| CC[C@H]1CN([C@H](CC)c2ccc(C(F)(F)F)cc2)[C@H](CC)CN1c1nc2nccn2c2ccc(C#N)nc12 [Compound 110] | 6 | 117 | – |
| Cn1c(=O)c(C(N)=O)c(N2CCC3(CCN(c4ccc(OC(F)(F)F)cc4)C3)CC2)c2nc(C#N)ccc21 [Compound 6] | 212 | 775 | EC50 [5]: 1800 nM |
| CC[C@H]1C[C@@H](Oc2ccc(OC(F)(F)F)cc2)CCN1c1nc(=O)n(C)c2ccc(C#N)nc12 [Compound 17] | – | 212 | IC50 [6]: 53 nM; EC50 [5]: 401 nM |
| CC[C@H]1CN(C(c2ccc(S(F)(F)(F)(F)F)cc2)c2nc(C3CC3)no2)[C@H](CC)CN1c1nc(=O)n(C)c2ccc(C#N)nc12 (some centres unmarked) [Compound 64] | 10 | 55 | – |
| CC[C@H]1CN([C@@H](CC)c2nc(C3CC3)no2)[C@H](CC)CN1c1nc2nncn2c2ccc(C#N)nc12 [Compound 119] | 3 | 21 | – |
| CC[C@H]1CN([C@H](CC)c2nc(C3CC3)no2)[C@H](CC)CN1c1nc2nncn2c2ccc(C#N)nc12 [Compound 120] | 10 | 352 | – |
| CC[C@@H]1CN(c2nc3nncn3c3ccc(C#N)nc23)[C@@H](CC)CN1C(=O)Nc1ccc(C(F)(F)F)cc1 [Compound 95] | 58 | 303 | – |
| CC[C@H]1CN(C(CO)c2ccc(S(F)(F)(F)(F)F)cc2)[C@H](CC)CN1c1nc(=O)n(C)c2ccc(C#N)nc12 (some centres unmarked) [Compound 77] | 32 | 81 | – |
| Cn1c(=O)nc(N2CCCc3c(C#CC4CC4)cccc32)c2nc(C#N)ccc21 [Compound 42] | 3 | 311 | – |
| Cc1ccc2oc(C3CCN(c4nc(=O)n(C)c5ccc6nncn6c45)CC3)nc2c1 [Compound 22] | 5 | > 10000 | – |
| CC[C@@H]1CN(c2nc(=O)n(C)c3ccc(C#N)nc23)[C@@H](C)CN1[C@@H](c1ccc(F)cc1)c1ccc(SC(F)(F)F)cn1 [Compound 72] | 13 | 33 | – |

| SMILES | IC50 [1] [nM] | IC50 [2] [nM] | also measured |
| --- | --- | --- | --- |
| Cn1c(=O)nc(N2CCC3(CC2)COC(c2ccc(OC(F)(F)F)cc2)=N3)c2nc(Cl)ccc21 [Compound 37] | 17 | 475 | – |
| CCC(c1ccc(C23CC(C2)C3)nc1)N1C[C@H](CC)N(c2nc3nncn3c3ccc(C#N)nc23)C[C@H]1CC (some centres unmarked) [Compound 104] | 18 | 41 | – |
| CC[C@H]1CN([C@@H](c2ccc(S(F)(F)(F)(F)F)cc2)c2nc(C3CC3)cs2)[C@H](CC)CN1c1nc(=O)n(C)c2ccc(C#N)nc12 [Compound 99] | 4 | 22 | – |
| CC[C@H]1CN([C@H](c2ccc(S(F)(F)(F)(F)F)cc2)c2nc(C3CC3)cs2)[C@H](CC)CN1c1nc(=O)n(C)c2ccc(C#N)nc12 [Compound 98] | 10 | 40 | – |
| CC[C@H]1CN(C(COC)c2ccc(S(F)(F)(F)(F)F)cc2)[C@H](CC)CN1c1nc(=O)n(C)c2ccc(C#N)nc12 (some centres unmarked) [Compound 78] | 19 | 41 | – |
| Cn1c(=O)nc(N2CCC3(CCN(c4ccc(OC(F)(F)F)cc4)C3)CC2)c2nc(C#N)ccc21 [Compound 8] | 579 | 547 | – |
| Cc1ccc2oc(C3CCN(c4nc(=O)n(C)c5ccc(C#N)nc45)CC3)nc2c1 [Compound 20] | 1160 | 1840 | – |
| Cn1c(=O)nc(N2CCC3(CC2)COC(c2ccc(OC(F)(F)F)cc2)=N3)c2nc(C#N)ccc21 [Compound 36] | – | – | CLint scaled at 1 μM [3]: 2.7 mL/min/kg; half-life at 1 μM [3]: 10.9 h |
| Cn1c(=O)c(C(N)=O)c(N2CCC3(CN(c4ccc(OC(F)(F)F)cc4)C3)C2)c2nc(C#N)ccc21 [Compound 15] | 19 | > 10000 | – |
| Cc1ccccc1-n1cc(C2CCN(c3nc(=O)n(C)c4ccc(C#N)nc34)CC2)cn1 [Compound 12] | 6600 | > 10000 | – |
| CN(c1cccc(C#CC2CC2)c1)c1nc(=O)n(C)c2ccc(C#N)nc12 [Compound 46] | 5 | 324 | – |
| CC[C@H]1CN([C@H](CC)c2ccc(OC)cc2F)[C@H](CC)CN1c1nc2nncn2c2ccc(C#N)nc12 (stereo in doubt) [Compound 116] | 14 | 347 | – |
| CC[C@@H]1CN2c3c(c(=O)n(C)c4ccc(C#N)nc34)OC[C@H]2CN1[C@H](CC)c1ccc(C(F)(F)F)cc1 [Compound 108] | 26 | 242 | – |
| Cn1c(=O)nc(N2CCC3(CC2)CC(c2cccc(C(F)(F)F)c2)=NO3)c2nc(C#N)ccc21 [Compound 47] | 12 | 36 | – |
| CC[C@@H]1CN2c3c(c(=O)n(C)c4ccc(C#N)nc34)OC[C@@H]2CN1[C@@H](CC)c1ccc(S(F)(F)(F)(F)F)cc1 (stereo in doubt) [Compound 151] | – | – | CLint scaled at 1 μM [3]: 4.1 mL/min/kg; half-life at 1 μM [3]: 7.13 h; EC50 [4]: 32 nM; EC50 [5]: 82 nM |
| Cn1c(=O)nc(N2CCC(Oc3ccc(OC(F)(F)F)cc3)CC2)c2nc(C#N)ccc21 [Compound 5] | 427 | 126 | EC50 [5]: 728 nM |
| CC[C@H]1CN([C@H](CC)c2ccc(C(F)(F)F)cc2)[C@H](CC)CN1c1nc2nncn2c2ccc(C#N)nc12 [Compound 35] | 16 | 224 | – |
| CC[C@H]1CN([C@@H]2CCCCc3cc(C(F)(F)F)ccc32)[C@H](CC)CN1c1nc(=O)n(C)c2ccc(C#N)nc12 [Compound 45] | – | 45 | IC50 [6]: 245 nM; EC50 [4]: 858 nM |
| CC[C@H]1CN([C@H]2CCCCc3cc(C(F)(F)F)ccc32)[C@H](CC)CN1c1nc2nncn2c2ccc(C#N)nc12 [Compound 113] | 44 | 161 | – |
